Measurements as given in patent US20240358681A1, “METHODS OF USE OF PPAR AGONIST COMPOUNDS AND PHARMACEUTICAL COMPOSITIONS THEREOF” (Mitobridge, Inc., priority 2021, published 2024).
Entries after “also recorded” stand apart in the source; their conditions may differ.

Columns and labels:
PMM patient fibroblasts = experiment: Fatty acid OXPHOS in PMM patient fibroblasts (FIG. 4B, all lines); format: cell-based, human; details: 3, 9 and 30 nM
Procedure: LHON/Leigh cells were treated with DMSO or Compound (I) in complete media supplemented with 0.5 mM carnitine for 24 hours prior to assaying. Treated cells were trypsinized, collected in Krebs-Henseleit Buffer (KHB) and pelleted.
Palmitate-mediated OXPHOS was measured using an Oxygraph-2k (Oroboros Instruments). Cells (1×10^6) in KHB were loaded into each chamber with 250 μM BSA or BSA-conjugated palmitate. KHB was added to reach a final volume of 2 mL. Respiration was measured at 37° C. as previously described in Zhang, Z., et al., Primary respiratory chain disease causes tissue-specific dysregulation of the global transcriptome and nutrient-sensing signaling network. (1932-6203). Briefly, BSA and BSA-conjugated palmitate treated cells were analyzed simultaneously in two separate chambers. […]
Data were analyzed using DatLab6 software. […] Non-mitochondrial respiration was measured after addition of Rotenone and Antimycin A sequentially (ROX, residual oxygen consumption, background) and subtracted from maximal respiration values. […]
FAO was measured using a Seahorse XF96 (Seahorse Biosciences). […]

[1] = tested on: aged Diet-Induced Obese (DIO) C57BL/6NTac mice; experiment: Forced exhaustion running, activity and body composition in aged DIO mice; format: in vivo, mouse; details: 30 mg/kg
Procedure: All animal studies were performed in accordance with Charles River Laboratories animal welfare protocols. Male Diet-Induced Obese (DIO) C57BL/6NTac mice 28 weeks of age were fed a high fat diet. 20 mice were randomized based on bodyweight into two cohorts of 10 mice each. Five mice were assigned to each treatment group in each cohort (i) vehicle or (ii) Compound (I) at 30 mg/kg via (n=10 total animals per treatment). Groups were dosed orally by gavage, once daily for 45 days at the start of the dark cycle. Mice were acclimatized to the treadmill room for one hour on days of training or endurance runs. After an initial 5 min exploration period the treadmill belt moved at 5 m/min for 10 min with the motivation grid intensity set to 0.46 mA. Mice required a few visits to the grid to learn to walk/run on the moving belt and avoid the electric grid shock. After two acclimatization periods the mice learned to avoid the electric grid and stay on the moving belt, with fewer visits to the electric grid. The maximum speed for the endurance run was capped at 16.5 m/min based on speed acclimation runs, which represents the speed at which 25% of animals are running in the top ⅔ of the treadmill at a 5° slope. The mice were considered exhausted if they stayed on the electric grid with no limbs on the treadmill belt for 10 seconds.
Endurance was calculated as a Fatigue Index; this accounts for distance traveled, time on the treadmill, the number of breaks in running, and the length of those breaks. The cumulative number of stimulations for individual animals was plotted over time and the area under the curve (AUC) was calculated. AUC was divided by the distance individual animals completed during the course of the fatigue run to obtain the Fatigue Index. Voluntary activity is defined as the total number of X and Y axis laser beam breaks and rearing is defined as the total number of Z axis breaks per treatment group.

PPARδ = molecular target: T1, PPARδ (Mus musculus, UniProt P35396); experiment: Mouse EC50 (PPARδ agonist)
T1 sequence (P35396 1-440): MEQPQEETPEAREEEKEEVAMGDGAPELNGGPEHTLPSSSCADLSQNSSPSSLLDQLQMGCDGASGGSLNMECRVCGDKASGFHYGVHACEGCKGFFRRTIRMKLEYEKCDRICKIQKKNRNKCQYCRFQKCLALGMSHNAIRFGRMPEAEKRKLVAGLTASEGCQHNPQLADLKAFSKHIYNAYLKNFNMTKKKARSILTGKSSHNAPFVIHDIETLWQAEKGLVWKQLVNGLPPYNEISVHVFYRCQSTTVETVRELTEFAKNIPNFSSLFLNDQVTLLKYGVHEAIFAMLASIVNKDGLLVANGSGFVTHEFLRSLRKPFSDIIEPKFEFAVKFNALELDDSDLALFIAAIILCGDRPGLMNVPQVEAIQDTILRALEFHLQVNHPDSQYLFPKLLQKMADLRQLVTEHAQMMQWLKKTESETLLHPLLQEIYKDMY

[2] = 52-week monkey GLP toxicity study; format: in vivo
[3] = 26-week rat GLP toxicity study; format: in vivo
[4] = 5 weeks, vs vehicle, FIG. 6D-6E

SMILES: Cc1cnc(-c2ccc(C(F)(F)F)cc2)n1Cc1ccccc1OCCC[C@@H](C)CC(=O)O [Compound (I), (R)-3-Methyl-6-(2-((5-methyl-2-(4-(trifluoromethyl)phenyl)-1H-imidazol-1-yl)methyl)-phenoxy)hexanoic acid]
- fatty acid OXPHOS (PMM patient fibroblasts): increased
- rate of falls in the motivational grid ([1]; 5 weeks, FIG. 5F): decrease
- run distance ([1]; 5 weeks, FIG. 5H): no change
- Fatigue Index ([1]; 5 weeks, vs vehicle, FIG. 5I): less fatigued
- rearing [1, 4]: trend towards increased
- voluntary activity [1, 4]: trend towards increased; also recorded: No statistically significant differences
- body weight ([1]; during the study, FIG. 6B): did not alter
- body composition ([1]; during the study, FIG. 6C): did not alter; also recorded: No statistically significant differences
- EC50 (PPARδ): 0.014 µM
- no observed adverse effect level (NOAEL) [2]: highest tested dose
- no observed adverse effect level (NOAEL) [3]: highest tested dose
